Measurements as given in patent US20090285773A1, “Hepatitis C Virus Inhibitors” (Bristol-Myers Squibb Company, priority 2008, published 2009).

What was measured:
[1] = system: HCV replicon (strain 1b) in HUH-7 cells; test: HCV replicon FRET assay; type: cell-based; conditions: Hepatitis C virus, Huh-7; Table 2; replicon assay variant and unit inferred; read-out: EC50
Excerpt: An HCV replicon whole cell system was established as described by Lohmann V, Korner F, Koch J, Herian U, Theilmann L, Bartenschlager R., Science 285(5424): 110-3 (1999). This system enabled us to evaluate the effects of our HCV Protease compounds on HCV RNA replication. Briefly, using the HCV strain 1b sequence described in the Lohmann paper (Assession number:AJ238799), an HCV cDNA was synthesized by Operon Technologies, Inc. (Alameda, Calif.), and the full-length replicon was then assembled in plasmid pGem9zf(+) (Promega, Madison, Wis.) using standard molecular biology techniques. The replicon consists of (i) the HCV 5′ UTR fused to the first 12 amino acids of the capsid protein, (ii) the neomycin phosphotransferase gene (neo), (iii) the IRES from encephalomyocarditis virus (EMCV), and (iv) HCV NS3 to NS5B genes and the HCV 3′ UTR. Plasmid DNAs were linearized with ScaI and RNA transcripts were synthesized in vitro using the T7 MegaScript transcription kit (Ambion, Austin, Tex.) according to manufacturer's directions. In vitro transcripts of the cDNA were transfected into the human hepatoma cell line, HUH-7. […] Resulting cell lines were characterized for positive and negative strand RNA production and protein production over time.
The HCV replicon FRET assay was developed to monitor the inhibitory effects of compounds described in the disclosure on HCV viral replication. HUH-7 cells, constitutively expressing the HCV replicon, were grown in Dulbecco's Modified Eagle Media (DMEM) (Gibco-BRL) containing 10% Fetal calf serum (FCS) (Sigma) and 1 mg/ml G418 (Gibco-BRL). Cells were seeded the night before (1.5×10^4 cells/well) in 96-well tissue-culture sterile plates. Compound and no compound controls were prepared in DMEM containing 4% FCS, 1:100 Penicillin/Streptomysin (Gibco-BRL), 1:100 L-glutamine and 5% DMSO in the dilution plate (0.5% DMSO final concentration in the assay). Compound/DMSO mixes were added to the cells and incubated for 4 days at 37° C. After 4 days, cells were first assessed for cytotoxicity using alamar Blue (Trek Diagnotstic Systems) for a CC50 reading. The toxicity of compound (CC50) was determined by adding 1/10th volume of alamar Blue to the media incubating the cells. After 4 h, the fluorescence signal from each well was read, with an excitation wavelength at 530 nm and an emission wavelength of 580 nm, using the Cytofluor Series 4000 (Perspective Biosystems). Plates were then rinsed thoroughly with Phosphate-Buffered Saline (PBS) (3 times 150 μl).

[2] = molecular target: T1, NS3/4A protease complex (UniProt P27958); test: HCV NS3/4A protease complex enzyme assay (strain not stated); type: biochemical; conditions: Table 2; strain and unit inferred
T1 construct: fused on or other part: three-lysine solubilising tail at the C-terminus of NS4A; probably a His tag from pET21b (Ni-NTA purification)
T1 sequence (P27958 1027-1657, one chain of several): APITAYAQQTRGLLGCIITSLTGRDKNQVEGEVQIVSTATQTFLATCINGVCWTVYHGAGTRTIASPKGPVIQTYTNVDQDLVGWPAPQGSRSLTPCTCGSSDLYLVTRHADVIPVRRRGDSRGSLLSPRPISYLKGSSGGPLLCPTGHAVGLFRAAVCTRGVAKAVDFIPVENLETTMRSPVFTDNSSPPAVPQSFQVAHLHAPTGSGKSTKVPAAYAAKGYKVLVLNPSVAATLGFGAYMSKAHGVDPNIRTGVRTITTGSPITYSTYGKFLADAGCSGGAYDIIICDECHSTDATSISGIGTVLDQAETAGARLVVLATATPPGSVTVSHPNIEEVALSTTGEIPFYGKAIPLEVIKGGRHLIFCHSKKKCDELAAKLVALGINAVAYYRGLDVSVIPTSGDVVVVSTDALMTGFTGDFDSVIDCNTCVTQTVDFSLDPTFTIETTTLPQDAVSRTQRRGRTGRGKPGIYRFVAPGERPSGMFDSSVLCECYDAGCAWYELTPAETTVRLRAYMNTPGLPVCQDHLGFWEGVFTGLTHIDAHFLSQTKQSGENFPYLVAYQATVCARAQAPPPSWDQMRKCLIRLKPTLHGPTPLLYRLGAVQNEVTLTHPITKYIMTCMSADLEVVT
Excerpt: The purpose of this in vitro assay was to measure the inhibition of HCV NS3 protease complexes, derived from the BMS strain, H77 strain or J4L6S strain, as described above, by compounds of the present disclosure. This assay provides an indication of how effective compounds of the present disclosure would be in inhibiting HCV NS3 proteolytic activity.
In order to monitor HCV NS3/4A protease activity, an NS3/4A peptide substrate was used. The substrate was RET S1 (Resonance Energy Transfer Depsipeptide Substrate; AnaSpec, Inc. cat #22991)(FRET peptide), described by Taliani et al. in Anal. Biochem. 240(2):60-67 (1996). The sequence of this peptide is loosely based on the NS4A/NS4B natural cleavage site for the HCV NS3 protease except there is an ester linkage rather than an amide bond at the cleavage site. The peptide also contains a fluorescence donor, EDANS, near one end of the peptide and an acceptor, DABCYL, near the other end. The fluorescence of the peptide is quenched by […] resonance energy transfer (RET) between the donor and the acceptor, but as the NS3 protease cleaves the peptide the products are released from RET quenching and the fluorescence of the donor becomes apparent.
The peptide substrate was incubated with one of the three recombinant NS3/4A protease complexes, in the absence or presence of a compound of the present disclosure. The inhibitory effects of a compound were determined by monitoring the formation of fluorescent reaction product in real time using a Cytofluor Series 4000.
Assay buffer: 50 mM HEPES, pH 7.5; 0.15 M NaCl; 0.1% Triton; 15% Glycerol; 10 mM βME. Substrate: 2 μM final concentration (from a 2 mM stock solution in DMSO stored at −20° C.). HCV NS3/4A protease type 1a (1b), 2-3 nM final concentration (from a 5 μM stock solution in 25 mM HEPES, pH 7.5, 20% glycerol, 300 mM NaCl, 0.2% Triton-X100, 10 mM βME). For compounds with potencies approaching the assay limit, the assay was made more sensitive by adding 50 μg/ml Bovine Serum Albumin (Sigma) to the assay buffer and reducing the end protease concentration to 300 pM.
The assay was performed in a 96-well polystyrene black plate from Falcon. Each well contained 25 μl NS3/4A protease complex in assay buffer, 50 μl of a compound of the present disclosure in 10% DMSO/assay buffer and 25 μl substrate in assay buffer. A control (no compound) was also prepared on the same assay plate. The enzyme complex was mixed with compound or control solution for 1 min before initiating the enzymatic reaction by the addition of substrate. The assay plate was read immediately using the Cytofluor Series 4000 (Perspective Biosystems). The instrument was set to read an emission of […] at 25° C. Reactions were generally followed for approximately 15 min.
The percent inhibition was calculated with the following equation: […]
where δF is the change in fluorescence over the linear range of the curve. A non-linear curve fit was applied to the inhibition-concentration data, and the 50% effective concentration (IC50) was calculated by the use of Excel XLfit software using the equation, y=A+((B−A)/(1+((C/x)̂D))).

Row | SMILES | EC50 [1] [nM] | IC50 [2] [nM]
1 | COc1ccc(N[C@H]2CCCCC/C=C\[C@@H]3C[C@@]3(C(=O)NS(=O)(=O)C3CC3)NC(=O)[C@@H]3C[C@@H](Oc4ncc(OC)c5ccc(Cl)cc45)CN3C2=O)cn1 (single isomer, unassigned) [Compound 2] | 9.1 | 6
2 | COc1ccc2c(O[C@@H]3C[C@H]4C(=O)N[C@]5(C(=O)NS(=O)(=O)C6CC6)C[C@H]5/C=C\CCCCC[C@H](Nc5nc(-c6ccccc6)cs5)C(=O)N4C3)nccc2c1 [Compound 5] | 8.1 | 3
3 | COc1cnc(O[C@@H]2C[C@H]3C(=O)N[C@]4(C(=O)NS(=O)(=O)C5CC5)C[C@H]4/C=C\CCCCC[C@H](Nc4nc(-c5ccc(OC(F)(F)F)cc5)cs4)C(=O)N3C2)c2cc(Cl)ccc12 [Compound 6] | 8.7 | 2
4 | COc1ccc2c(O[C@@H]3C[C@H]4C(=O)N[C@]5(C(=O)NS(=O)(=O)C6CC6)C[C@H]5/C=C\CCCCC[C@H](Nc5nc(-c6ccc(OC(F)(F)F)cc6)cs5)C(=O)N4C3)nccc2c1 [Compound 3] | 6.2 | 5
5 | COc1ccc2c(O[C@@H]3C[C@H]4C(=O)N[C@]5(C(=O)NS(=O)(=O)C6CC6)C[C@H]5/C=C\CCCCC[C@H](Nc5nc(-c6ccc(F)cc6F)cs5)C(=O)N4C3)nccc2c1 [Compound 4] | 13.8 | 11
